Calls of active or inactive are those of the source. No cut-off for these calls is given here.
Legend:
[1] = Cytotoxicity against human ECA109 cells assessed as decrease in cell proliferation after 48 hrs by MTT assay; assay type: functional, cell-based; details: ECa-109, 48 h
[2] = Cytotoxicity against HEEC assessed as decrease in cell proliferation after 48 hrs by MTT assay; assay type: toxicity; details: human, HEEC cells
[3] = Cytotoxicity against human HeLa cells assessed as decrease in cell proliferation after 48 hrs by MTT assay; assay type: functional, cell-based
[4] = biological target: T1, DNA topoisomerase 1 (Homo sapiens) (UniProt P11387); assay: Inhibition of DNA topoisomerase-1 (unknown origin)-mediated supercoiled pBR322 DNA relaxation at 100 uM after 30 mins by agarose gel electrophoresis
T1 sequence (whole entry): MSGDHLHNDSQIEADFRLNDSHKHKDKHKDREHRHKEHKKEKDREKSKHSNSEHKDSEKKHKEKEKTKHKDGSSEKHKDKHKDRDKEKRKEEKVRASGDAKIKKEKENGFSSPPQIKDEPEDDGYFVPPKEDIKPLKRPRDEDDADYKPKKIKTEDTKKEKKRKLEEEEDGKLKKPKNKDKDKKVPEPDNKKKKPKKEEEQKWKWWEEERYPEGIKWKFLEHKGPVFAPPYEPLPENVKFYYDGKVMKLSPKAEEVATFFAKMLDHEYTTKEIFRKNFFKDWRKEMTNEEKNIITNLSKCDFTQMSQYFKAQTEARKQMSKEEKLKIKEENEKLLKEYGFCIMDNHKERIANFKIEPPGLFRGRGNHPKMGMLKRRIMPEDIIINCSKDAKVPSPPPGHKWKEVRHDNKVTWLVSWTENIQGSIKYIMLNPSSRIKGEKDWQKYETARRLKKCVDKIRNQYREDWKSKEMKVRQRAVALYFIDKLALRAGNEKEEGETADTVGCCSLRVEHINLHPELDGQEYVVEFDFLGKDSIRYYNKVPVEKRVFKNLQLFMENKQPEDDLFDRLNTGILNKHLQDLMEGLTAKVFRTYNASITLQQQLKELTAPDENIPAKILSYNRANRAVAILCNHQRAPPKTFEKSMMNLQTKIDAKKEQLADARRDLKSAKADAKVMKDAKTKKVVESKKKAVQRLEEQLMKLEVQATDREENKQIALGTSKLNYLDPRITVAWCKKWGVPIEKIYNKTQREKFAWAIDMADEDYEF

[5] = biological target: T1, DNA topoisomerase 1 (Homo sapiens); assay: Inhibition of DNA topoisomerase-1 (unknown origin)-mediated supercoiled pBR322 DNA relaxation at 25 uM after 30 mins by agarose gel electrophoresis
HeLa [6] = assay: Induction of apoptosis in human HeLa cells assessed as chromatin condensation at IC50 after 48 hrs by Hoechst 33342 staining-based fluorescence microscopic method; assay type: functional, cell-based
HeLa [7] = assay: Induction of apoptosis in human HeLa cells assessed as chromatin fragmentation at IC50 after 48 hrs by Hoechst 33342 staining-based fluorescence microscopic method; assay type: functional, cell-based
[8] = biological target: T1, DNA topoisomerase 1 (Homo sapiens); assay: Inhibition of DNA topoisomerase-1 (unknown origin)-mediated supercoiled pBR322 DNA relaxation at 5 uM after 30 mins by agarose gel electrophoresis

Row | inhibition [4] | inhibition [5] | inhibition [8] | Structure (SMILES) | IC50 [1] [µM] | IC50 at 48 h [2] [µM] | IC50 [3] [µM] | Activity (HeLa [6]) | Activity (HeLa [7])
1 | Active |  |  | COc1cc(C(C2=C(O)C(=O)c3ccccc3C2=O)c2c[nH]c3ccc(Br)cc23)cc(OC)c1OC (stereo not given) | 13 | 36.3 | 9.71 |  | 
2 |  |  |  | Cc1[nH]c2ccccc2c1C(C1=C(O)C(=O)c2ccccc2C1=O)c1ccc(Cl)cc1 (stereo not given) | 14.3 | 40.2 | 8.03 |  | 
3 |  | Active |  | Cc1[nH]c2ccccc2c1C(C1=C(O)C(=O)c2ccccc2C1=O)c1ccc([N+](=O)[O-])cc1 (stereo not given) | 6 | 15.1 | 4.57 | Active | Active
4 |  |  |  | COc1cccc(C(C2=C(O)C(=O)c3ccccc3C2=O)c2c[nH]c3ccccc23)c1 (stereo not given) | 40 | 110 | 25.6 |  | 
5 |  |  |  | O=C1C(O)=C(C(c2ccc([N+](=O)[O-])cc2)c2c[nH]c3ccccc23)C(=O)c2ccccc21 (stereo not given) | 60.9 | > 200 | 14.8 |  | 
6 |  |  |  | O=C1C(O)=C(C(c2cccs2)c2c[nH]c3ccccc23)C(=O)c2ccccc21 (stereo not given) | 12.1 | 31.2 | 12.4 |  | 
7 |  |  | Active | O=C1C(O)=C(C(c2ccc([N+](=O)[O-])cc2)c2c(-c3ccccc3)[nH]c3ccccc23)C(=O)c2ccccc21 (stereo not given) | 5.08 | 14.2 | 6.77 | Active | Active
8 |  |  |  | O=C1C(O)=C(C(c2ccc([N+](=O)[O-])cc2)c2c[nH]c3ccc(Br)cc23)C(=O)c2ccccc21 (stereo not given) | 16.9 | 45.2 | 14.1 |  | 
9 |  |  |  | CC(C)=CCC1=C(O)C(=O)c2ccccc2C1=O [LAPACHOL] | 12.6 | 20.2 | 20.4 |  | 
10 |  | Active |  | COc1ccc(C(C2=C(O)C(=O)c3ccccc3C2=O)c2c[nH]c3ccccc23)cc1Br (stereo not given) | 11.8 | 25.2 | 7.32 |  | 
11 |  |  |  | COc1ccccc1C(C1=C(O)C(=O)c2ccccc2C1=O)c1c[nH]c2ccccc12 (stereo not given) | > 200 | > 200 | 128 |  | 
12 |  | Active |  | O=C1C(O)=C(C(c2cccc([N+](=O)[O-])c2)c2c(-c3ccccc3)[nH]c3ccccc23)C(=O)c2ccccc21 (stereo not given) | 5.83 | 13.4 | 12.5 |  | 
13 |  |  |  | O=C1C(O)=C(C(c2ccc(Cl)cc2)c2c[nH]c3ccccc23)C(=O)c2ccccc21 (stereo not given) | 45.8 | 102 | 37 |  | 
14 |  |  |  | O=C1C(O)=C(C(c2ccc(F)cc2)c2c[nH]c3ccccc23)C(=O)c2ccccc21 (stereo not given) | 28.1 | 65.2 | 15.8 |  | 
15 |  |  |  | CC[C@@]1(O)C(=O)OCc2c1cc1n(c2=O)Cc2cc3ccccc3nc2-1 [CAMPTOTHECIN] | 9.52 | 17.7 | 11.4 |  | 
16 |  |  |  | O=C1C(O)=C(C(c2cccc([N+](=O)[O-])c2)c2c[nH]c3ccccc23)C(=O)c2ccccc21 (stereo not given) | 36.1 | 91.2 | 24.9 |  | 
17 |  |  |  | O=C1C(O)=C(C(c2ccccc2)c2c(-c3ccccc3)[nH]c3ccccc23)C(=O)c2ccccc21 (stereo not given) | 5.18 | 26.4 | 18.8 |  | 

From ChEMBL document CHEMBL3860081, “Design, synthesis and biological evaluation of lapachol derivatives possessing indole scaffolds as topoisomerase I inhibitors” (Bioorg Med Chem, 2016)
